Experimental data reported in PMC6934184, “Selective DNA-PKcs inhibition extends the therapeutic index of localized radiotherapy and chemotherapy” (The Journal of Clinical Investigation, 2019).

Molecular target: T1, KIT (Homo sapiens, UniProt P10721)
T1 construct: purchased Thermo Fisher Scientific (Life Technologies) SelectScreen
Assay: SelectScreen Z'LYTE
Format: biochemical
Procedure: The in vitro kinase selectivity of NU5455 was determined using the SelectScreen Broad Assay Panel (Thermo Fisher Scientific) involving activity and binding assays (Supplemental Table 1). […] Class IA PI3Ks were measured using the p85α subunit.
Kinase [ATP] % Assay Kinase [ATP] % Assay Kinase [ATP] % Assay Kinase [ATP] % Assay
DNA-PK Km app 98.3 Z LATS2 n/a 4.7 L KIT D820E n/a 1.3 L GSK3B (GSK3 beta) Km app -2.5 Z
PIK3C3 (hVPS34) Km app 85.9 A PRKCZ (PKC zeta) Km app 4.7 Z GRK1 n/a 1.3 L BMPR2 n/a -2.5 L
PIK3C2B (PI3K-C2 beta) 10 28.9 A FGFR1 Km app 4.7 Z BRSK2 n/a 1.2 L CDC42 BPB (MRCKB) Km app -2.5 Z
SNF1LK2 Km app 26.6 Z MINK1 Km app 4.6 Z NUAK1 (ARK5) Km app 1.2 A AMPK (A2/B2/G2) n/a -2.6 L
HCK Km app 18.0 Z CSF1R (FMS) Km app 4.3 Z CDK9/cyclin K n/a 1.0 L PRKG1 Km app -2.7 Z
NEK2 Km app 17.8 Z CSNK1G3 (CK1 gamma 3) Km app 4.2 Z NUAK2 n/a 1.0 L KIT T670E n/a -2.8 L
ALK Km app 17.3 Z STK32C (YANK3) n/a 4.2 L CDK2/cyclin O n/a 0.9 L ERBB4 (HER4) Km app -2.8 Z
FGFR3 K650M n/a 16.5 L STK22D (TSSK1) Km app 4.2 Z CAMKK2 (CaMKK beta) n/a 0.9 L PLK4 n/a -2.8 L
SIK3 n/a 16.1 L TAOK3 (JIK) n/a 4.2 L FGFR3 Km app 0.9 Z GRK7 Km app -3.0 Z
LYN A Km app 15.2 Z RPS6KA4 (MSK2) Km app 4.2 Z ULK2 n/a 0.9 L MAPKAPK2 Km app -3.1 Z
BMPR1B (ALK6) n/a 14.5 L PTK2B (FAK2) Km app 4.2 Z KIT D816V n/a 0.9 L FGFR4 Km app -3.1 Z
INSRR (IRR) Km app 14.1 Z CLK2 Km app 4.1 Z CAMK1 (CaMK1) 10 0.8 A CASK n/a -3.1 L
PLK2 Km app 14.1 Z STK24 (MST3) Km app 4.1 Z PTK6 (Brk) Km app 0.7 Z GRK5 Km app -3.2 Z
PRKACA (PKA) Km app 14.0 Z CAMK1D (CaMKI delta) Km app 4.1 Z CAMK2B (CaMKII beta) Km app 0.7 Z EGFR (ErbB1) T790M Km app -3.3 Z
EIF2AK2 (PKR) n/a 13.3 L INSR Km app 4.1 Z ACVR1 (ALK2) n/a 0.7 L PAK4 Km app -3.3 Z
PRKX Km app 12.5 Z IRAK1 Km app 4.0 A ABL1 H396P n/a 0.6 L DAPK3 (ZIPK) Km app -3.4 Z
FGR Km app 12.1 Z SRC N1 Km app 3.9 Z MERTK (cMER) A708S n/a 0.6 L RET M918T n/a -3.5 L
CLK1 Km app 11.7 Z SRPK2 Km app 3.9 Z MAPKAPK5 (PRAK) Km app 0.6 Z PRKCQ (PKC theta) Km app -3.7 Z
MARK3 Km app 11.4 Z RPS6KA6 (RSK4) Km app 3.8 Z AKT1 (PKB alpha) Km app 0.5 Z CAMKK1 (CAMKKA) n/a -3.8 L
PDGFRB (PDGFR beta) Km app 11.0 Z GRK6 Km app 3.7 Z NTRK3 (TRKC) Km app 0.4 Z FLT3 D835Y Km app -3.9 Z
PRKCN (PKD3) Km app 10.7 Z PKN1 (PRK1) Km app 3.6 Z ZAP70 Km app 0.3 Z ROCK2 Km app -4.1 Z
STK16 (PKL12) n/a 10.5 L MAP3K8 (COT) 100 3.5 Z CSNK1A1 (CK1 alpha 1) Km app 0.3 Z CHUK (IKK alpha) Km app -4.2 A
FES (FPS) Km app 10.4 Z FLT4 (VEGFR3) Km app 3.5 Z MYLK (MLCK) n/a 0.2 L AXL Km app -4.2 Z
ABL1 Km app 10.4 Z GRK4 Km app 3.5 Z MKNK2 (MNK2) n/a 0.2 L PIM2 Km app -4.3 Z
MUSK Km app 10.3 Z FRK (PTK5) Km app 3.4 Z AMPK (A1/B1/G3) n/a 0.2 L PAK1 Km app -4.4 Z
MAPK1 (ERK2) Km app 10.1 Z FYN A n/a 3.3 L MAP3K2 (MEKK2) n/a 0.1 L BMPR1A (ALK3) n/a -4.4 L
BRAF 100 9.9 Z CDK1/cyclin A2 n/a 3.3 L CDK8/cyclin C n/a 0.1 L STK4 (MST1) Km app -4.4 Z
IGF1R Km app 9.7 Z KIT V559D T670I n/a 3.1 L MARK2 Km app 0.1 Z PRKCH (PKC eta) Km app -4.6 Z
MAPK14 (p38 alpha) Km app 9.7 Z SPHK2 10 3.1 A ICK n/a 0.0 L SGKL (SGK3) Km app -4.6 Z
LCK Km app 9.6 Z FGFR3 G697C n/a 3.1 L FGFR2 Km app 0.0 Z PI4KB (PI4K beta) Km app -4.7 A
MAPK11 (p38 beta) Km app 9.5 Z RIPK2 n/a 3.1 L AKT2 (PKB beta) Km app 0.0 Z PRKCE (PKC epsilon) Km app -4.9 Z
SRC Km app 9.5 Z PAK6 Km app 3.0 Z EPHB2 Km app -0.1 Z PHKG1 Km app -5.0 Z
CHEK1 (CHK1) Km app 9.3 Z LYN B Km app 3.0 Z TGFBR2 n/a -0.1 L PDGFRA D842V Km app -5.0 Z
CAMK2D (CaMKII delta) Km app 9.3 Z DAPK2 n/a 2.9 L TEK (Tie2) Km app -0.1 Z PRKG2 (PKG2) Km app -5.1 Z
PLK1 Km app 9.2 Z EPHA4 Km app 2.9 Z AURKA (Aurora A) Km app -0.1 Z TYRO3 (RSE) Km app -5.1 Z
RET Y791F Km app 9.2 Z PIK3CG (p110 gamma) Km app 2.9 A KIT D816H n/a -0.2 L TAOK2 (TAO1) Km app -5.1 Z
FLT3 Km app 9.1 Z HIPK1 (Myak) Km app 2.8 Z KIT N822K n/a -0.2 L EPHB4 Km app -5.3 Z
MAPK10 (JNK3) 100 9.0 Z ADRBK2 (GRK3) Km app 2.8 Z PRKACG (PRKAC gamma) n/a -0.2 L AURKC (Aurora C) Km app -5.4 Z
CSNK2A2 (CK2 alpha 2) Km app 8.7 Z STK17B (DRAK2) n/a 2.7 L TEK (TIE2) Y1108F n/a -0.3 L JAK1 Km app -5.7 Z […]

T1 sequence (P10721 26-976): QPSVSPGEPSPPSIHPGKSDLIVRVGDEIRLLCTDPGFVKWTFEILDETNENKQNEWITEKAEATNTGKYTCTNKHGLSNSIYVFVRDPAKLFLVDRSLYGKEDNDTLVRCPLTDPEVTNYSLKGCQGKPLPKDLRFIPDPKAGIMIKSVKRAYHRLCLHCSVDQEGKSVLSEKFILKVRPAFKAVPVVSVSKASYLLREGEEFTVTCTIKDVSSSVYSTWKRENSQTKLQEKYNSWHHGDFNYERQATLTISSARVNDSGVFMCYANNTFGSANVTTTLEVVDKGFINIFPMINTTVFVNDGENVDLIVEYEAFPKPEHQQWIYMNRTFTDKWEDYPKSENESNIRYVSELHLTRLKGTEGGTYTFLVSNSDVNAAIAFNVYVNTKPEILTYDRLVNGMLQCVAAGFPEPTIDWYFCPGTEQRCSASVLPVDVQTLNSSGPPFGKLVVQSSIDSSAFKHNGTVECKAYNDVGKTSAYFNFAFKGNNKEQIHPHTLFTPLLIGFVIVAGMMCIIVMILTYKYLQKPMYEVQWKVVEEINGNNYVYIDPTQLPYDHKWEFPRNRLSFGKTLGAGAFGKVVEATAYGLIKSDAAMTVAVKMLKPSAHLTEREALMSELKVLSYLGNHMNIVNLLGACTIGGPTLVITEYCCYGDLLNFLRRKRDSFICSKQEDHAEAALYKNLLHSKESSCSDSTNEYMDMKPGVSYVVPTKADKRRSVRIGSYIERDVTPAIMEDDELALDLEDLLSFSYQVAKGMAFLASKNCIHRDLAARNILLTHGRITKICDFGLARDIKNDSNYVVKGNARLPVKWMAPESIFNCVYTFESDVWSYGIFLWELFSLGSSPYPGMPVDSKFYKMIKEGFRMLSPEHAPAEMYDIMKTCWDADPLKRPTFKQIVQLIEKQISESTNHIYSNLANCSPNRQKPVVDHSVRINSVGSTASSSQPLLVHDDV

CN(C(=O)CN1CCOCC1)c1ccc2sc3c(-c4cccc5c(=O)cc(N6CC7CCC(C6)O7)oc45)cccc3c2c1 [NU5455]
inhibition at 1 µM: 5.3%
